pEC50, pIC50: −log10 of the molar value. Like-named read-outs stand apart in the source and are kept apart here.
Assays:
[1] = target: T1, HCV NS5B RdRp genotype 1b (Hepatitis C virus genotype 1b, UniProt Q9WMX2); test: Standard HCV NS5B RdRp enzyme assay; format: biochemical; settings: HCV NS5B RdRp genotype 1b, read-out: IC50
T1 construct: The protein was expressed with an 18 amino acid C-terminal truncation to enhance the solubility; made in house; host or cells: E. coli BL21(DE3), pET21a vector
In short: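 Radiometric SPA measuring 3H-UMP incorporation on polyA/biotin-oligo-dT12 (6 nM/180 nM), 0.29 μM total UTP. Enzyme: NS5B 1b lacking last 18 residues, 28 nM final, 30° C for 60 min in 20 mM Hepes pH 7.5, 2.5 mM MgCl2, 2% DMSO. IC50 from seven-point curves.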

[2] = test system: HCV replicon cells; test: HCV replicon FRET / luciferase assay (96-well plates); format: cell-based; settings: Hepatitis C virus, HCV replicon, read-out: EC50
In short: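 Percent activity is background-subtracted signal relative to untreated cell wells, with background taken from maximal protease-inhibitor wells. Cytotoxicity is Alamar blue fluorescence relative to controls. Replicon inhibition was read by NS3 FRET peptide cleavage (340/490 nm) or luciferase.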

T1 sequence (Q9WMX2 2420-2992): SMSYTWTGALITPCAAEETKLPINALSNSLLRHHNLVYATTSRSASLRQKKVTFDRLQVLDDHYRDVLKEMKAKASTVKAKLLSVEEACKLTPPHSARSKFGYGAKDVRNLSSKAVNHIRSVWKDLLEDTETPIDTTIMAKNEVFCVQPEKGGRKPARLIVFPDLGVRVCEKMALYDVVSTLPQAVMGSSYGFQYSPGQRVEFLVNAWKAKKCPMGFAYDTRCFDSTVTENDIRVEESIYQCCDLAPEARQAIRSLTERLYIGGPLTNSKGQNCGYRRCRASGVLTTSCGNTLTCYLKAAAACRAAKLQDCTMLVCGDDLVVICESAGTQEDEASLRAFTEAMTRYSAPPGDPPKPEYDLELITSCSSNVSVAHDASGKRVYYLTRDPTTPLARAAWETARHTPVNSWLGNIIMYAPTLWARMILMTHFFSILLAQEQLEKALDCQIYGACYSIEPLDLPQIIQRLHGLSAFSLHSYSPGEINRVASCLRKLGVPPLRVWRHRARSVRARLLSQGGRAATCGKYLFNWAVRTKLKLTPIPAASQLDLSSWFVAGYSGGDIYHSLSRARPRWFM

Row | Compound | pIC50 ([1]; Table 1d (class symbols)) | pEC50 ([2]; 24 h, Table 1d (class symbols)) | pIC50 ([1]; Table 1a) | pEC50 ([2]; Table 1a) | also measured
1 | CNC(=O)c1c(-c2ccc(F)cc2)oc2ccc(-c3cccc(C(=O)O)c3OC)cc12 | – | – | – | – | pIC50 ([1]; untitled table after Table 1b): 5.32; pEC50 ([2]; untitled table after Table 1b, values without asterisk): 4.88
2 | CNC(=O)c1c(-c2ccc(F)cc2)oc2ccc(-c3cc(C(=O)NC4(c5cccc(C)c5)CC4)c(OC)cc3C)cc12 | 6.60 to 9.00 | 6.60 to 9.00 | – | – | –
3 | CNC(=O)c1c(-c2ccc(F)cc2)oc2ccc(-c3cc(C(=O)NC4(c5cn(C)cn5)CC4)ccc3C)cc12 | > 7.70 | 6.60 to 9.00 | – | – | –
4 | CNC(=O)c1c(-c2ccc(F)cc2)oc2ccc(-c3cc(C(=O)NC4(c5ccccn5)CC4)c(OCC(N)=O)cc3C)cc12 | > 7.70 | 6.60 to 9.00 | – | – | –
5 | CCOc1cc(C)c(-c2ccc3oc(-c4ccc(F)cc4)c(C(=O)NC)c3c2)cc1C(=O)NC1(c2ccccn2)CC1 | 6.60 to 9.00 | 6.60 to 9.00 | – | – | –
6 | CCCOc1cc(C)c(-c2ccc3oc(-c4ccc(F)cc4)c(C(=O)NC)c3c2)cc1C(=O)NC1(c2ccccn2)CC1 | 6.60 to 9.00 | 6.60 to 9.00 | – | – | –
7 | CNC(=O)c1c(-c2ccc(F)cc2)oc2ccc(-c3cc(C(=O)NC4(c5ccccn5)CC4)c(OCC(C)C)cc3C)cc12 | 6.60 to 9.00 | 6.60 to 9.00 | – | – | –
8 | CNC(=O)c1c(-c2ccc(F)cc2)oc2ccc(-c3cc(C(=O)NC4(c5ccccn5)CC4)c(OCC4CC4)cc3C)cc12 | 6.60 to 9.00 | 6.60 to 9.00 | – | – | –
9 | CNC(=O)c1c(-c2ccc(F)cc2)oc2ccc(-c3cc(C(=O)NC4(c5ccccn5)CC4)c(OCCC(N)=O)cc3C)cc12 | > 7.70 | 6.60 to 9.00 | – | – | –
10 | CNC(=O)c1c(-c2ccc(F)cc2)oc2ccc(-c3cc(C(=O)NC4(c5cnc(C)cn5)CC4)ccc3C)c(F)c12 | 6.60 to 9.00 | 6.60 to 9.00 | – | – | –
11 | C#CCOc1cc(C)c(-c2ccc3oc(-c4ccc(F)cc4)c(C(=O)NC)c3c2)cc1C(=O)NC1(c2ccccn2)CC1 | 6.60 to 9.00 | 6.60 to 9.00 | – | – | –
12 | CNC(=O)c1c(-c2ccc(F)cc2)oc2ccc(-c3cc(C(=O)NC4(c5cnccn5)CC4)c(OC)cc3C)cc12 | 6.60 to 9.00 | 6.60 to 9.00 | – | – | –
13 | CNC(=O)c1c(-c2ccc(F)cc2)oc2ccc(-c3cccc(C(=O)NC4(c5ccccc5)CC4)c3)cc12 [drawing 67] | – | – | > 6.60 | > 6.60 | –
14 | CNC(=O)c1c(-c2ccc(F)cc2)oc2cc(N)c(-c3cccc(C(=O)NC(C)(C)c4ccccc4)c3)cc12 [drawing 94] | – | – | > 6.60 | > 6.60 | –
15 | CNC(=O)c1c(-c2ccc(F)cc2)oc2ccc(-c3cc(C(=O)NC4(c5ccccc5)CC4)ccc3F)cc12 [drawing 100] | – | – | > 6.60 | > 6.60 | –
16 | CNC(=O)c1c(-c2ccc(F)cc2)oc2ccc(-c3cccc(C(=O)NCCOC)c3)cc12 [drawing 182] | – | – | 5.00 to 6.00 | 5.00 to 6.00 | –
17 | CNC(=O)c1c(-c2ccc(F)cc2)oc2ccc(-c3cccc(C(=O)N(C)CCC#N)c3)cc12 [drawing 204] | – | – | 6.00 to 6.60 | 5.00 to 6.00 | –
18 | CNC(=O)c1c(-c2ccc(F)cc2)oc2ccc(-c3cccc(C(=O)N4CCCCC4C)c3)cc12 (stereo not shown) [drawing 208] | – | – | 6.00 to 6.60 | 5.00 to 6.00 | –
19 | CCC[C@H](CO)NC(=O)c1cccc(-c2ccc3oc(-c4ccc(F)cc4)c(C(=O)NC)c3c2)c1 [drawing 228] | – | – | 5.00 to 6.00 | 5.00 to 6.00 | –
20 | CCCC[C@H](CO)NC(=O)c1cccc(-c2ccc3oc(-c4ccc(F)cc4)c(C(=O)NC)c3c2)c1 [drawing 232] | – | – | 6.00 to 6.60 | 5.00 to 6.00 | –
21 | CNC(=O)c1c(-c2ccc(F)cc2)oc2ccc(-c3cccc(C(=O)N[C@@H](CO)C(C)C)c3)cc12 [drawing 235] | – | – | 6.00 to 6.60 | 5.00 to 6.00 | –
22 | CNC(=O)c1c(-c2ccc(F)cc2)oc2ccc(-c3cccc(C(=O)N[C@H]4CCC[C@H]4c4ccc(Cl)cc4)c3)cc12 [drawing 243] | – | – | < 5.00 | 5.00 to 6.00 | –
23 | CNC(=O)c1c(-c2ccc(F)cc2)oc2ccc(-c3cccc(C(=O)N4CC[C@H](NC(C)=O)C4)c3)cc12 [drawing 277] | – | – | 5.00 to 6.00 | < 5.00 | –
24 | CNC(=O)c1c(-c2ccc(F)cc2)oc2ccc(-c3ccc(C(=O)N(C)Cc4cccnc4)cc3)cc12 [drawing 286] | – | – | 5.00 to 6.00 | < 5.00 | –
25 | CNC(=O)c1c(-c2ccc(F)cc2)oc2ccc(-c3ccc(C(=O)N4CCC[C@@H]4COC)cc3)cc12 [drawing 288] | – | – | < 5.00 | < 5.00 | –
26 | CN1CN(C)c2c(-c3cccc(C(N)=O)c3)ccc3oc(-c4ccc(F)cc4)c(c23)C1=O [drawing 319] | – | – | < 5.00 | < 5.00 | –
